We go through 26 compounds from ChEMBL document CHEMBL3714751, “Diaminopyrimidines as P2X3 and P2X2/3 modulators” (2009).

Activity calls are given as the source filed them. No cut-off for these calls is given here.

The first data set has as its target T1, P2X purinoceptor 3 (Rattus norvegicus) (UniProt P49654).
T1 sequence (whole entry): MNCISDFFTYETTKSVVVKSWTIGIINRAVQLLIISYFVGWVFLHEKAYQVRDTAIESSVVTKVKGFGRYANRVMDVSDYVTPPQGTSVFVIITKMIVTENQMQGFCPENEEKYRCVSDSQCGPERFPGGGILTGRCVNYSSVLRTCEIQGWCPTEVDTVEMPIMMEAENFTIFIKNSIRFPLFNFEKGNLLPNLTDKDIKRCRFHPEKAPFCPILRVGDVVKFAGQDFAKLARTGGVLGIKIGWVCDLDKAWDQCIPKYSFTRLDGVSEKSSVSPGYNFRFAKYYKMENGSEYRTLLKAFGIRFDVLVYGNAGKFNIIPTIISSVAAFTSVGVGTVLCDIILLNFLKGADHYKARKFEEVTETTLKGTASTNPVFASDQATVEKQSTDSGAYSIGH
Kind of data set: Antagonist activity against rat P2X3 receptor expressed in CHOK1 cells assessed as inhibition of alpha,beta-meATP-induced calcium response incubated for 20 mins by Fluo-3AM dye based FLIPR assay. It counts as functional, cell-based. Particulars: CHO-K1.
For `COc1cc(C(C)C)c(Oc2cnc(NC(=O)CN3CCC(C(C)=O)CC3)nc2N)cc1I`, the inhibition result was “Active”.

Take `COc1cc(C(C)C)c(Oc2cnc(NC(=O)CNC(C)(C)C)nc2N)cc1I`: the inhibition entry was “Active”.

For `COc1cc(C(C)C)c(Oc2cnc(NC(=O)CN3CCCC3)nc2N)cc1I`, the inhibition entry is “Active”.

As for `COc1cc(C(C)C)c(Oc2cnc(NC(=O)CNC3CCC3)nc2N)cc1I`, the inhibition result is “Active”.

On to `COc1cc(C(C)C)c(Oc2cnc(NC(=O)CNC3CCC(C)CC3)nc2N)cc1I` (stereo not drawn), for which the inhibition entry was “Active”.

Regarding `COc1cc(C(C)C)c(Oc2cnc(NC(=O)CN3CCN(C)CC3)nc2N)cc1I`, the inhibition result is “Active”.

On to `COc1cc(C(C)C)c(Oc2cnc(NC(=O)CN3CCN(CCCO)CC3)nc2N)cc1I`, for which the inhibition entry was “Active”.

On to `COc1cc(C(C)C)c(Oc2cnc(NC(=O)CN3CCNCC3)nc2N)cc1I`, for which the inhibition result is “Active”.

Regarding `COc1cc(C(C)C)c(Oc2cnc(NC(=O)CNCC(C)C)nc2N)cc1I`, the inhibition entry is “Active”.

In the case of `COc1cc(C(C)C)c(Oc2cnc(NC(=O)CNCC3CC3)nc2N)cc1I`, the inhibition entry is “Active”.

For `COc1cc(C(C)C)c(Oc2cnc(NC(=O)CNC3CCN(C)CC3)nc2N)cc1I`, the inhibition entry was “Active”.

Turning to `COc1cc(C(C)C)c(Oc2cnc(NC(=O)CN3CCC(N)CC3)nc2N)cc1I`, the inhibition entry was “Active”.

As to `COCCNCC(=O)Nc1ncc(Oc2cc(I)c(OC)cc2C(C)C)c(N)n1`, the inhibition result is “Active”.

On to `COc1cc(C(C)C)c(Oc2cnc(NC(=O)CN(C)C3CCCCC3)nc2N)cc1I`, for which the inhibition entry is “Active”.

On to `COc1cc(C(C)C)c(Oc2cnc(NC(=O)CN(C)C)nc2N)cc1I`, for which the inhibition entry is “Active”.

As for `C#Cc1cc(Oc2cnc(NC(=O)CN3CCN(C)CC3)nc2N)c(C(C)C)cc1OC`, the inhibition result was “Active”.

Turning to `COc1cc(C(C)C)c(Oc2cnc(NC(=O)CNC3CCCC3)nc2N)cc1I`, the inhibition entry was “Active”.

As for `CCCN(CCC)CC(=O)Nc1ncc(Oc2cc(I)c(OC)cc2C(C)C)c(N)n1`, the inhibition result is “Active”.

Turning to `COc1cc(C(C)C)c(Oc2cnc(NC(=O)CN3CC(C)OC(C)C3)nc2N)cc1I` (stereo not drawn), the inhibition entry is “Active”.

Regarding `COc1cc(C(C)C)c(Oc2cnc(NC(=O)CN3CCOCC3)nc2N)cc1I`, the inhibition result was “Active”.

For `CCN(CCCCO)CC(=O)Nc1ncc(Oc2cc(I)c(OC)cc2C(C)C)c(N)n1`, the inhibition result is “Active”.

Consider `COc1cc(C(C)C)c(Oc2cnc(NC(=O)CN3CCCCC3)nc2N)cc1I`, for which the inhibition result was “Active”.

In the case of `COc1cc(C(C)C)c(Oc2cnc(NC(=O)CN3CCN(CCO)CC3)nc2N)cc1I`, the inhibition entry was “Active”.

For the compound `CCCNCC(=O)Nc1ncc(Oc2cc(I)c(OC)cc2C(C)C)c(N)n1`, the inhibition entry was “Active”.

On to `COc1cc(C(C)C)c(Oc2cnc(NC(=O)CNC3CCCCC3)nc2N)cc1I`, for which the inhibition result is “Active”.

In the case of `CCC(CC)NCC(=O)Nc1ncc(Oc2cc(I)c(OC)cc2C(C)C)c(N)n1`, the inhibition entry is “Active”.

The subject of a further data set is Canis familiaris. As to the kind of experiment: Cmax in dog assessed as 5-(5-Iodo-2-iso-propyl-4-methoxy-phenoxy)-pyrimidine-2,4-diamine level at 0.127 mmol administered orally by gavage after 24 hrs by HPLC method. The data set is classed as ADME, organism-based, Canis lupus familiaris. Particulars: in vivo, po. The arrangement: dose 0.127 mmol, route oral.
One may read the Cmax as the highest concentration seen after dosing. As for `CCCN(CCC)CC(=O)Nc1ncc(Oc2cc(I)c(OC)cc2C(C)C)c(N)n1`, the Cmax turned out to be 120 ng/mL.

The subject of a further data set is Canis familiaris. Kind of data set: AUC in dog assessed as 5-(5-Iodo-2-iso-propyl-4-methoxy-phenoxy)-pyrimidine-2,4-diamine level at 0.127 mmol administered orally by gavage after 24 hrs by HPLC method. Set-up: dose 0.127 mmol, time < 24 hr, route oral. The note with it: in vivo, po. The data set is classed as ADME, organism-based, Canis lupus familiaris.
One may read the AUC as the area under the concentration-time curve, a measure of exposure. Turning to `CCCN(CCC)CC(=O)Nc1ncc(Oc2cc(I)c(OC)cc2C(C)C)c(N)n1`, the exposure (AUC) is 372 ng·h/mL.
